This passage reports IC50, Activity and inhibition results from ChEMBL document CHEMBL3734752, “Acylhydrazone derivatives as potential anticancer agents: Synthesis, bio-evaluation and mechanism of action” (Bioorg Med Chem Lett, 2015).

≈ marks a conversion by molar mass, not a printed value. Calls of active or inactive are those of the source. The calls are words filed in the database; no cut-off is given here.

Assay [1] can be described thus: (§1) Cytotoxicity against human HuH7 cells assessed as inhibition of cell proliferation after 72 hrs by MTT assay. Type of assay: functional, cell-based. The conditions noted are these: Huh-7, 72 h. In general terms: Tetrazolium dyes change colour on reduction, which living cells bring about.
The nature of assay [2]: (§2) Cytotoxicity against human BCG823 cells assessed as inhibition of cell proliferation after 72 hrs by MTT assay. The class given is functional, cell-based. The conditions noted are these: BCG823, 72 h.
Assay [3] has as its system HepG2. The assay can be described thus: Cytotoxicity against human HepG2 cells assessed as inhibition of cell proliferation after 72 hrs by MTT assay. The class given is functional, cell-based. The conditions noted are these: for IC50: HepG2, 72 h.
In assay [4] the test system is HepG2. Description: Induction of apoptosis in human HepG2 cells assessed as early apoptotic cells at IC50 concentration after 24 hrs by Annexin V-FITC/propidium iodide staining-based flow cytometry (reference value: 1.2 %). The class given is functional. On the technique in general: Flow cytometry measures light scatter and fluorescence of single cells or particles in a stream.

Assay [5] relates to HepG2. Description: Induction of apoptosis in human HepG2 cells assessed as necrotic cells at IC50 concentration after 24 hrs by Annexin V-FITC/propidium iodide staining-based flow cytometry (reference value: 1.6 %). Type of assay: functional.
Assay [6] deals with BCG823. The assay can be described thus: Cytotoxicity against human BCG823 cells assessed as inhibition of cell proliferation at 40 ug/ml after 72 hrs by MTT assay. The class given is functional, cell-based.
Assay [7] concerns HepG2. Description: Induction of apoptosis in human HepG2 cells assessed as necrotic cells at 2 times IC50 after 24 hrs by Annexin V-FITC/propidium iodide staining-based flow cytometry (reference value: 1.6 %). Type of assay: functional.
Assay [8] relates to HepG2. The assay can be described thus: Cytotoxicity against human HepG2 cells assessed as inhibition of cell proliferation at 40 ug/ml after 72 hrs by MTT assay. Type of assay: functional, cell-based.
Assay [9] deals with HepG2. The assay can be described thus: Induction of apoptosis in human HepG2 cells assessed as late apoptotic cells at 2 times IC50 after 24 hrs by Annexin V-FITC/propidium iodide staining-based flow cytometry (reference value: 0.2 %). Type of assay: functional.
Assay [10] concerns HepG2. The assay can be described thus: Induction of apoptosis in human HepG2 cells assessed as viable cells at 2 times IC50 after 24 hrs by Annexin V-FITC/propidium iodide staining-based flow cytometry (reference value: 97 %). The class given is functional.
The test system of assay [11] is HepG2. The assay can be described thus: Induction of apoptosis in human HepG2 cells assessed as late apoptotic cells at IC50 concentration after 24 hrs by Annexin V-FITC/propidium iodide staining-based flow cytometry (reference value: 0.2 %). Type of assay: functional.
Assay [12] relates to BCG823. The assay is described as §2. The class given is functional, cell-based.
Assay [13] relates to Huh-7. Description: (§3) Cytotoxicity against human HuH7 cells assessed as inhibition of cell proliferation at 40 ug/ml after 72 hrs by MTT assay. Type of assay: functional.
For assay [14], the system named is HepG2. The assay can be described thus: Induction of apoptosis in human HepG2 cells assessed as early apoptotic cells at 2 times IC50 after 24 hrs by Annexin V-FITC/propidium iodide staining-based flow cytometry (reference value: 1.2 %). Type of assay: functional.
The test system of assay [15] is HepG2. Description: Induction of apoptosis in human HepG2 cells assessed as viable cells at IC50 concentration after 24 hrs by Annexin V-FITC/propidium iodide staining-based flow cytometry (reference value: 97 %). Type of assay: functional.
The subject of assay [16] is Huh-7. Described as §1. The class given is functional, cell-based.
Assay [17] in a line: as §3. Type of assay: functional. The conditions noted are these: Huh-7, 72 h.

As for `C/C(=N\NC(=O)c1ccc(CSc2nc3ccccc3s2)cc1)c1ccc(C)c([N+](=O)[O-])c1`, the IC50 (in assay [1]; in assay [2]; with HepG2 [3]) was more than 80 µg/mL throughout.
As to `C/C(=N\NC(=O)c1ccc(CSc2nc(C)cc(C)n2)cc1)c1ccc(F)cc1`, the Activity was 10.3% in the assay on HepG2 [4]; 4.5% with HepG2 [5]; 4.9% in the assay with HepG2 [7]; 2.3% with HepG2 [9]; 76.3% with HepG2 [10]; 1.4% in the assay on HepG2 [11]. Further, the Activity with HepG2 [14] was determined as 16.5%; with HepG2 [15] it was 83.8%. Moreover, the inhibition result with BCG823 [6], in the assay on HepG2 [8] and with Huh-7 [13] was “Active” each time. In addition, the IC50 (usually the midpoint of a concentration-inhibition curve) in assay [1] stood at 3.25 µg/mL (≈ 7.96 µM); in [2], 3.88 µg/mL (≈ 9.5 µM); in the assay on HepG2 [3], 4.85 µg/mL (≈ 11.9 µM). The inhibition result with BCG823 [12] and with HepG2 [3] was “Dose-dependent effect” each time.
Turning to `COc1cc(/C=N/NC(=O)c2ccc(CSc3nc4ccccc4s3)cc2)cc(OC)c1OC`, the half-inhibitory concentration (IC50) (in [1]; in assay [2]; in the assay on HepG2 [3]) was more than 80 µg/mL throughout.
Consider `COc1cc(/C=N/NC(=O)c2ccc(CSc3nc(C)cc(C)n3)cc2)cc(OC)c1OC`, for which the values for the IC50 (in [1]; in [2]; in the assay with HepG2 [3]) were 17.4 µg/mL (≈ 37.3 µM), 36.8 µg/mL (≈ 78.8 µM) and 33.3 µg/mL (≈ 71.3 µM), respectively.
Take `O=c1[nH]cc(F)c(=O)[nH]1` [FLUOROURACIL]: the IC50 was found to be 10.4 µg/mL (≈ 80 µM) in [1], 17.4 µg/mL (≈ 134 µM) in [2] and 36 µg/mL (≈ 277 µM) in the assay with HepG2 [3]. Also, the inhibition result in the assay on Huh-7 [16], with BCG823 [12] and in the assay on HepG2 [3] was “Dose-dependent effect” throughout.
As for `O=C(CSc1nc2ccccc2s1)N/N=C1\C(=O)Nc2ccccc21`, the inhibition result in the assay on BCG823 [6], in the assay on HepG2 [8] and in the assay with Huh-7 [13] was “Active” in each case. For the same compound, the IC50 in assay [1] came to 13.1 µg/mL (≈ 35.6 µM); in assay [2], 17.7 µg/mL (≈ 48 µM); in the assay with HepG2 [3], 23.9 µg/mL (≈ 65 µM).
As to `C/C(=N\NC(=O)c1ccc(CSc2nc3ccccc3s2)cc1)c1ccc([N+](=O)[O-])cc1`, the results for the IC50 (in [1]; in [2]; in the assay with HepG2 [3]) were 4.46 µg/mL (≈ 9.64 µM), 31.3 µg/mL (≈ 67.7 µM) and 35.7 µg/mL (≈ 77.2 µM), respectively.
In the case of `COc1cc(/C=N/NC(=O)CSc2nc3ccccc3s2)cc(OC)c1OC`, the IC50 (in assay [1]; in [2]; in the assay with HepG2 [3]) was more than 80 µg/mL in each case.
With `C/C(=N\NC(=O)CSc1nc2ccccc2s1)c1ccc(C)c([N+](=O)[O-])c1`, the inhibition entry in the assay with BCG823 [6], in the assay with HepG2 [8] and in the assay on Huh-7 [13] was “Active” throughout. In addition, the IC50 in [1] stood at 10.1 µg/mL (≈ 25.1 µM); in assay [2] it was 17.8 µg/mL (≈ 44.5 µM); in the assay with HepG2 [3], 33 µg/mL (≈ 82.3 µM). In addition, the inhibition result with Huh-7 [16], in the assay on BCG823 [12] and with HepG2 [3] was “Dose-dependent effect” in each case.
In the case of `O=C(CSc1nc2ccccc2s1)N/N=C/c1c[nH]c2ccccc12`, the half-maximal inhibitory concentration (IC50) was 32.9 µg/mL (≈ 89.7 µM) in [1], more than 80 µg/mL in [2] and more than 80 µg/mL in the assay with HepG2 [3]. For the same compound, in assay [17], the inhibition – broadly, the drop in the measured response relative to a control, in per cent – at 40 µg/mL came out at 55%.
For the compound `Cc1cc(C)nc(SCc2ccc(C(=O)N/N=C/c3c[nH]c4ccccc34)cc2)n1`, the IC50 in assay [1] was determined as 23.2 µg/mL (≈ 55.9 µM); in assay [2], 35.5 µg/mL (≈ 85.5 µM); in the assay on HepG2 [3] it was 34.1 µg/mL (≈ 82.2 µM).
Consider `C/C(=N\NC(=O)c1ccc(CSc2nc(C)cc(C)n2)cc1)c1ccc(C)c([N+](=O)[O-])c1`, for which the IC50 (in assay [1]; in [2]; in the assay on HepG2 [3]) was more than 80 µg/mL each time.
For the compound `O=C1Nc2ccccc2/C1=N/NC(=O)c1ccc(CSc2nc3ccccc3s2)cc1`, the Activity with HepG2 [4] was determined as 5.5%; in the assay with HepG2 [5], 1.6%; in the assay with HepG2 [7], 5.6%; in the assay on HepG2 [9] it was 2.2%; in the assay with HepG2 [10] it was 77.7%; with HepG2 [11], 3.7%. The results for the Activity in the assay on HepG2 [14] and with HepG2 [15] were 14.5% and 89.3%, respectively. Moreover, the inhibition result in the assay with BCG823 [6], in the assay on HepG2 [8] and in the assay with Huh-7 [13] was “Active” throughout. For the same compound, the results for the IC50 (in [1]; in assay [2]; with HepG2 [3]) were 4.58 µg/mL (≈ 10.3 µM), 11.9 µg/mL (≈ 26.7 µM) and 5.71 µg/mL (≈ 12.8 µM), respectively. Further, the inhibition result in the assay on BCG823 [12] and in the assay with HepG2 [3] was “Dose-dependent effect” each time.
On to `C/C(=N\NC(=O)CSc1nc2ccccc2s1)c1ccc([N+](=O)[O-])cc1`, for which the IC50 in [1] is 39.7 µg/mL (≈ 103 µM); in assay [2] it was 35.7 µg/mL (≈ 92.4 µM); with HepG2 [3] it was more than 80 µg/mL.
For the compound `O=C(N/N=C/c1c[nH]c2ccccc12)c1ccc(CSc2nc3ccccc3s2)cc1`, the IC50 is 7.74 µg/mL (≈ 17.5 µM) in assay [1], more than 80 µg/mL in assay [2] and more than 80 µg/mL with HepG2 [3]. Besides, in [17], the inhibition at 40 µg/mL came out at 74%.
